Test results taken from ChEMBL document CHEMBL3826952, “Design and Synthesis of 2-Alkylpyrimidine-4,6-diol and 6-Alkylpyridine-2,4-diol as Potent GPR84 Agonists” (ACS Med Chem Lett, 2016).
pEC50: −log10 of the molar value. Active and inactive are the calls of the source. The calls are words filed in the database; no cut-off is given here.

Experiments:
[1] = molecular target: G-protein coupled receptor 84 (Homo sapiens, UniProt Q9NQS5); assay: Agonist activity at GPR84 (unknown origin) expressed in HEK293 cells coexpressing Galpha16 protein by Fluo-4 AM dye based calcium mobilization assay; type: functional, cell-based
G-protein coupled receptor 84, sequence (Q9NQS5 whole entry): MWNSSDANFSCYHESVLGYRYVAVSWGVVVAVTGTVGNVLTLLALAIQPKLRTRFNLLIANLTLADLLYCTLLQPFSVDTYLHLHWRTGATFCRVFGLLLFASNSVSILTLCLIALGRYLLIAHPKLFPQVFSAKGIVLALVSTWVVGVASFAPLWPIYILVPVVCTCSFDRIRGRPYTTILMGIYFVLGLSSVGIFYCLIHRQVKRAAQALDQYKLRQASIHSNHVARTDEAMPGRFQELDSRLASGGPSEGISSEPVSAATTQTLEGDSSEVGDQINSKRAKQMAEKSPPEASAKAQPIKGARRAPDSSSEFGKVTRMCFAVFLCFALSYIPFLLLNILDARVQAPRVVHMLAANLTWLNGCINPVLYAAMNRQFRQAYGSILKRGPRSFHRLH

[2] = molecular target: T1, Glucose-dependent insulinotropic receptor (Homo sapiens, UniProt Q8TDV5); assay: Agonist activity at GPR119 (unknown origin) by Fluo-4 AM dye based calcium mobilization assay; type: functional
T1 sequence (Q8TDV5 whole entry): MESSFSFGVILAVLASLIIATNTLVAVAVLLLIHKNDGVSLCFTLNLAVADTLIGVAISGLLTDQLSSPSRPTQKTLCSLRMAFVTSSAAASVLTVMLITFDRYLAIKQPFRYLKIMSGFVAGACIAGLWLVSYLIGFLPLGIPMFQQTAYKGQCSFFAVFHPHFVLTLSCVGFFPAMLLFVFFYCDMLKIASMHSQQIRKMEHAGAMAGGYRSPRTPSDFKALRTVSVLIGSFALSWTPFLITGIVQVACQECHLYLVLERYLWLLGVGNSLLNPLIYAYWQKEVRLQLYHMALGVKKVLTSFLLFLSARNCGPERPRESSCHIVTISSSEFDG

[3] = Oral bioavailability in ICR mouse at 10 mg/kg administered through gavage measured up to 24 hrs post dose by LC-MS/MS analysis; type: ADME, organism-based; conditions: in vivo
[4] = molecular target: T2, Free fatty acid receptor 3 (Homo sapiens) (UniProt O14843); assay: Agonist activity at GPR41 (unknown origin) up to 100 uM by Fluo-4 AM dye based calcium mobilization assay; type: functional
T2 sequence (whole entry): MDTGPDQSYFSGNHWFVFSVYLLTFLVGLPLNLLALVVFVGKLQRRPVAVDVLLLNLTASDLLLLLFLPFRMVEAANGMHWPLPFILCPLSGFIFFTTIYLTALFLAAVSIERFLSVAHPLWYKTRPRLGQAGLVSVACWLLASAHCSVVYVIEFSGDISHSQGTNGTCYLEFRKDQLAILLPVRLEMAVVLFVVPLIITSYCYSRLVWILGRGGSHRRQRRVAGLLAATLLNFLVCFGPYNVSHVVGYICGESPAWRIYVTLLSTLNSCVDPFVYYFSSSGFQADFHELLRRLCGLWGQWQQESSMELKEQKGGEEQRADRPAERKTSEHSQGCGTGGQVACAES

[5] = molecular target: T3, Free fatty acid receptor 4 (Homo sapiens) (UniProt Q5NUL3); assay: Agonist activity at GPR120 (unknown origin) up to 100 uM by Fluo-4 AM dye based calcium mobilization assay; type: functional
T3 sequence (whole entry): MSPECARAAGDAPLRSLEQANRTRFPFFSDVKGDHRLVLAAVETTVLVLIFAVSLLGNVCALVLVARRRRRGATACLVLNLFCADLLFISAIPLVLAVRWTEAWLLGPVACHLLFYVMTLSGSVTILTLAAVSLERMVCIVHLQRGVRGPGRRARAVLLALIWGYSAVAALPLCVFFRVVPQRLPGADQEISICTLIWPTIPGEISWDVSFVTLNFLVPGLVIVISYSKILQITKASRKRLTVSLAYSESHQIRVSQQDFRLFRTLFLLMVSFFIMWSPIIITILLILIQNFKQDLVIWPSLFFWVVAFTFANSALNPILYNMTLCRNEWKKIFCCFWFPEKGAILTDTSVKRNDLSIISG

[6] = molecular target: T4, Free fatty acid receptor 1 (Homo sapiens, UniProt O14842); assay: Agonist activity at GPR40 (unknown origin) up to 100 uM by Fluo-4 AM dye based calcium mobilization assay; type: functional
T4 sequence (O14842 whole entry): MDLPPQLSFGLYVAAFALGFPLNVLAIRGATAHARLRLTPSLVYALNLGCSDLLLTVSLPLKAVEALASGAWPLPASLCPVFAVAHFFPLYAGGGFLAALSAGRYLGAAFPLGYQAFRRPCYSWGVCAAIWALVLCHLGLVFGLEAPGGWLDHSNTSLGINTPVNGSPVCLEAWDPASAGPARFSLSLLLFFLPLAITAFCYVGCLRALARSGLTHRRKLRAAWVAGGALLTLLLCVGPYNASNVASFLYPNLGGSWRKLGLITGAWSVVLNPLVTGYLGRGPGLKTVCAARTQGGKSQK

[7] = molecular target: T5, Glucose-dependent insulinotropic receptor (Homo sapiens) (UniProt Q8TDV5); assay: Agonist activity at GPR119 (unknown origin) up to 100 uM by Fluo-4 AM dye based calcium mobilization assay; type: functional
T5 sequence (whole entry): T1 sequence (Q8TDV5 whole entry)

[8] = AUC (0 to t) in ICR mouse plasma at 10 mg/kg, po administered through gavage measured up to 24 hrs post dose by LC-MS/MS analysis; type: ADME, organism-based; parameters: time < 24 hr, dose 10 mg/kg, route oral
[9] = Cmax in ICR mouse plasma at 10 mg/kg, po administered through gavage measured up to 24 hrs post dose by LC-MS/MS analysis; type: ADME, organism-based; parameters: dose 10 mg/kg, route oral
[10] = molecular target: T6, Free fatty acid receptor 3 (Homo sapiens, UniProt O14843); assay: Agonist activity at GPR41 (unknown origin) by Fluo-4 AM dye based calcium mobilization assay; type: functional
T6 sequence (O14843 whole entry): T2 sequence (whole entry)

[11] = molecular target: T4, Free fatty acid receptor 1; assay: Agonist activity at GPR40 (unknown origin) by Fluo-4 AM dye based calcium mobilization assay; type: functional

CCCCCCSc1nc(OCCCCCCCO)cc(=O)[nH]1
pEC50 [1]: < 4.00

C#CCCSc1nc(O)cc(O)n1
pEC50 [1]: 5.05

CC(C)(C)OC(=O)N1CCC(OCc2nc(-c3ccncc3)no2)CC1
pEC50 [2]: 5.29

CCCCCCCCCc1cc(O)cc(O)n1
bioavailability [3]: 24.3% | Activity [4]: inactive | Activity [5]: inactive | Activity [6]: inactive | Activity [7]: inactive | AUC(0-t) at 24 h [8]: 399 ng·h/mL | Cmax [9]: 229 ng/mL

CCCCCCc1nc(O)cc(O)n1
pEC50 [1]: 6.34

CCCC(=O)[O-].[Na+] [SODIUM BUTYRATE]
pEC50 [10]: 5.00

Cc1c(O)nc(SCCCCc2ccccc2)nc1O
pEC50 [1]: < 4.00

CCCCCCOc1cc(O)nc(SCCCCCC)n1
pEC50 [1]: < 4.00

OCCCCCCCCSc1nc(O)cc(O)n1
pEC50 [1]: < 4.00

CCCCCCSc1nc(O)cc(=O)n1Cc1ccccc1
pEC50 [1]: < 4.00

CC/C=C\C/C=C\C/C=C\C/C=C\C/C=C\C/C=C\CCC(=O)O [DOCONEXENT]
pEC50 [11]: 4.93

CCCCCCSc1nc(O)cc(=O)n1C
pEC50 [1]: < 4.00

N#CCCCCc1nc(O)cc(O)n1
pEC50 [1]: < 4.00

Oc1cc(C(F)(F)F)nc(SCCCCc2ccccc2)n1
pEC50 [1]: < 4.00

Nc1cc(O)nc(SCCCCc2ccccc2)n1
pEC50 [1]: < 4.00

Nc1cc(N)nc(SCCCCc2ccccc2)n1
pEC50 [1]: < 4.00

CC/C=C\CCSc1nc(O)cc(O)n1
pEC50 [1]: 6.03

Cc1cc(O)nc(SCCCCc2ccccc2)n1
pEC50 [1]: < 4.00
